How the values were obtained:
Format in all cases: cell-based, human
Mcl-1 3′-UTR = Mcl-1 3′-UTR luciferase reporter assay in HCT-116 cells; conditions: HCT-116 cells cotransfected with 100 ng reporter, 48 hours
Experimental: (§1) HCT-116 and CHL1 cells were purchased from the American Type Culture Collection (ATCC) and cultured in DMEM (Invitrogen Corp., Grand Island, N.Y.) supplemented with 10% fetal bovine serum (Invitrogen) and 1% penicillin/streptomycin (Invitrogen). All cell lines were maintained in a humidified chamber at 37° C. containing 5% CO2. These cells were authenticated by morphological, cell proliferation and Mycoplasma tests recommended in the ATCC Technical Bulletin no, 8 (2007). Cells were reverse transfected at 1.5−2.5×10^4 cells/[…] in 96-well tissue culture plates. siRNA or miRNA transfection was performed using Lipofectamine 2000 according to manufacturer's instructions (Invitrogen). […] Caspase 3/7 activity was measured using the Caspase-Glo 3/7 assay (Promega). Luciferase activity was measured using the Steady-Glo reagent according to the manufacturer's protocol (Promega).
MiRNA could modulate sensitivity to ABT-263 through several mechanisms: by directly targeting the Mcl-1 gene 3′-UTR and repressing protein translation or by targeting molecules involved in regulating Mcl-1 expression or function. […] Measure was taken of the effect of two Mcl-1 siRNAs and the twelve strongest sensitizing miRNAs on the Mcl-1 protein levels in HCT-116 cells using the Mcl-1 quantitative assay described above. […] Mcl-1 protein expression was measured using the Mcl-1 Luminex assay. […]

Mcl-1 = Mcl-1 protein expression, Luminex-based assay, in HCT-116 cells; conditions: 50 nM miRNA or Mcl-1 siRNA, 48 hours
Description: The present disclosure also provides a method for determining whether an miRNA increases sensitivity of a subject to treatment with a Bcl-2 family inhibitor. The method includes a) reverse transfecting a population of cancer cells with the candidate miRNA; b) contacting the cells with an effective amount of the Bcl-2 family inhibitor, and c) determining Mcl-1 expression level in the cells, wherein a decrease in Mcl-1 expression is indicative that the miRNA increases sensitivity of the subject to treatment with the Bcl-2 family inhibitor. Mcl-1 protein expression can be measured using a liquid phase immunoassay using Luminex beads. In brief, an Mcl-1 capture antibody is conjugated to Luminex beads (bead region 9) and an Mcl-1 detection antibody conjugated to biotin. […] Cell assay buffer is added after filtering and the plate is read using a Luminex 200 station. […]
Mcl-1 protein expression was measured using a new Mcl-1 assay based on the Luminex technology. […] Cell assay buffer was added after filtering and the plate was read using a Luminex 200 station. The liquid-phase quantitative protein assay was used to measure the levels of Mcl-1 in cells. […] Using this new Mcl-1 quantitative assay, the effect of these miRNAs on the Mcl-1 protein levels in CHL1 cells was measured. […]

HCT-116 cells = assay: ABT-263 sensitization, CellTiter Glo cell viability after reverse transfection of miRNA/siRNA; conditions: for sensitization of HCT-116 cells to ABT-263, in words / sensitization of HCT-116 cells to ABT-263 (decrease in cell viability): 1 μM ABT-263, 48 hours; for sensitization of HCT-116 cells to ABT-263, in words: reverse transfection (miRNA 50 nM, siRNA 12.5 nM); for sensitization of HCT-116 cells to ABT-263 (decrease in cell viability): 50 nM miRNA mimic reverse transfected
Experimental: HCT-116 and CHL1 cells were purchased from the American Type Culture Collection (ATCC) and cultured in DMEM (Invitrogen Corp., Grand Island, N.Y.) supplemented with 10% fetal bovine serum (Invitrogen) and 1% penicillin/streptomycin (Invitrogen). All cell lines were maintained in a humidified chamber at 37° C. containing 5% CO2. These cells were authenticated by morphological, cell proliferation and Mycoplasma tests recommended in the ATCC Technical Bulletin no, 8 (2007). Cells were reverse transfected at 1.5−2.5×10^4 cells/[…] in 96-well tissue culture plates. siRNA or miRNA transfection was performed using Lipofectamine 2000 according to manufacturer's instructions (Invitrogen). For Mcl-1 and Bcl-xl siRNA transfections, a final concentration of 12.5 nM siRNA was used. For miRNA transfections, a final concentration of 50 nM miRNA was used. The cells were then grown in medium without antibiotic for 2 days before harvesting. For reporter experiments, 100 ng of pcDNA3-Mcl-1-3′UTR-luciferase reporter construct (21) was included in the liposome complex mix. Forty-eight hours after transfection, cells were assayed for viability using CellTiter Glo Luminescent cell viability assay according to the manufacturer's protocol (Promega). Caspase 3/7 activity was measured using the Caspase-Glo 3/7 assay (Promega). Luciferase activity was measured using the Steady-Glo reagent according to the manufacturer's protocol (Promega).
HCT-116 cells were reverse transfected as described in Example 1 above. Three replica plates were treated with 1 μM ABT-263 in media. […] HCT-116 cells were reverse transfected with sensitizing miRNAs in the presence or absence of 1 μM ABT-263 for 48 hours. Cell viability was measured with CellTiter Glo assay. MiR-29 and miR-125 were used as positive and negative controls for this assay. miRNAs that sensitize HCT-116 cells to ABT-263 by more than 25% are shown. FIG. 1B is a bar graph showing miRNAs that sensitize CHL1 cells to ABT-263. CHL1 cells were reverse transfected with sensitizing miRNAs in the presence or absence of 1 μM ABT-263 for 48 hours. Cell viability was measured with CellTiter Glo assay. Only miRNAs that sensitize HCT-116 cells to ABT-263 by more than 25% were shown. (See FIG. 6 for the complete list of 42 miRNAs). FIG. 1C is a bar graph showing modulation of Mcl-1 protein expression by sensitizing miRNAs in CHL1 cells. CHL1 cells were reverse transfected with sensitizing miRNAs. Mcl-1 expression was measured using a Luminex-based assay as described in the Methods section.
To identify miRNAs that modulate sensitivity of cells to Bcl-2 family inhibitor ABT-263, an miRNA “sensitization” screen was performed using an miRNA mimic library in the presence of ABT-263. The screen was conducted in a colon cancer cell line HCT-116. […] Synthetic miRNA mimics were reverse transfected into HCT-116 cells in the presence or absence of ABT-263 (FIG. 4). Reverse transfection of Mcl-1 siRNA and predicted Mcl-1-targeting miRNAs sensitized HCT-116 cells to 1 μM ABT-263 after 48 hours.
HCT-116 cells were reverse transfected with a library of 810 annotated miRNA mimics in triplicate in the presence of 1 μM ABT-263 (FIG. 5A). Viability of cells was determined after 2 days. […] Z-scores were used to select candidate miRNAs for subsequent experiments. Of 810 miRNA mimics, 80 increased cell death in the presence of ABT-263. Thirty-eight of these 80 miRNAs either reduced cell viability in the absence of ABT-263 (Z←1.5) or represented mimic replicates from the screen, and therefore were not subjected to further testing. The remaining 42 miRNAs were tested in a secondary screen to assess their effect in the presence or absence of ABT-263. MiR-29 and miR-125 were used as control for this screen. […] FIG. 6A identifies miRNAs that sensitize HCT-116 cells to ABT-263. HCT-116 cells were reverse transfected with sensitizing miRNAs in the presence or absence of 1 μM ABT-263 for 48 hours. Cell viability was measured with CellTiter Glo assay. […]

CHL1 cells = assay: as above; conditions: no ABT-263
Experimental: as §1
HCT-116 cells were reverse transfected as described in Example 1 above. […] Cell viability was measured with CellTiter Glo assay. […] Cell viability was measured with CellTiter Glo assay. […] Mcl-1 expression was measured using a Luminex-based assay as described in the Methods section.
HCT-116 cells were reverse transfected with a library of 810 annotated miRNA mimics in triplicate in the presence of 1 μM ABT-263 (FIG. 5A). Viability of cells was determined after 2 days. […] Cell viability was measured with CellTiter Glo assay. […]

With “miR-605: sensitizing human miRNA, sequence UAAAUCCCAUGGUGCCUUCUCCU (listed as RNA, chemistry not given here)” the “luciferase activity of Mcl-1 3′-UTR reporter” value (Mcl-1 3′-UTR) was “did not reduce the luciferase activity” and the “Mcl-1 protein expression in HCT-116 cells” value (Mcl-1) was “affected the Mcl-1 protein expression”.

In the case of “miR-744*: sensitizing human miRNA, sequence CUGUUGCCACUAACCUCAACCU (listed as RNA, chemistry not given here)”, the “luciferase activity of Mcl-1 3′-UTR reporter” value (Mcl-1 3′-UTR) was “did not reduce the luciferase activity” and the “Mcl-1 protein expression in HCT-116 cells” value (Mcl-1) was “affected the Mcl-1 protein expression”.

With “Mcl-1 siRNA: Mcl-1 targeting siRNA, sequence GCATCGAACCATTAGCAGATT (listed as DNA, chemistry not given here)” the “sensitization of HCT-116 cells to ABT-263, in words” value (“sensitization … in words” for short) (HCT-116 cells) was “significantly sensitize”, the “HCT-116 cell viability after transfection in the absence of ABT-263” value (HCT-116 cells; no ABT-263) was “would not affect cell viability” and the “CHL1 cell viability after transfection in the absence of ABT-263” value (CHL1 cells) was “affected CHL1 cell viability”.

For “miR-153: sensitizing human miRNA, sequence UUGCAUAGUCACAAAAGUGAUC (listed as RNA, chemistry not given here)”, the “sensitization of HCT-116 cells to ABT-263 (decrease in cell viability)” value (HCT-116 cells) was ~50%.

In the case of “miR-125: control miRNA (negative control), sequence UCCCUGAGACCCUUUAACCUGUGA (listed as RNA, chemistry not given here)”, the “sensitization … in words” value (HCT-116 cells) was “did not sensitize”.

For `CC1(C)CCC(c2ccc(Cl)cc2)=C(CN2CCN(c3ccc(C(=O)NS(=O)(=O)c4ccc(N[C@H](CCN5CCOCC5)CSc5ccccc5)c(S(=O)(=O)C(F)(F)F)c4)cc3)CC2)C1` [ABT-263, N-(4-(4-((2-(4-chlorophenyl)-5,5-dimethyl-1-cyclohex-1-en-1-yl)methyl)pip-erazin-1-yl)benzoyl)-4-(((1R)-3-(morpholin-4-yl)-1-((phenylsulfanyl)methyl-)propyl)amino)-3-((trifluoromethyl)sulfonyl)benzenesulfonamide], the “effect of ABT-263 alone on HCT-116 cell viability” value (HCT-116 cells; in the presence of the control siRNA and miRNA) was ≤ 25%.

“miR-29: control miRNA (positive control), sequence UAGCACCAUUUGAAAUCAGUGUU (listed as RNA, chemistry not given here)” was tested, and the “sensitization … in words” value (HCT-116 cells) was “much weaker”.

For “miR-193a: sensitizing human miRNA, sequence AACUGGCCUACAAAGUCCCAGU (listed as RNA, chemistry not given here)”, the “sensitization of HCT-116 cells to ABT-263 (decrease in cell viability)” value (HCT-116 cells) was ~50%.
